“And” between values parts separate entries of the source, which are not always exact repeats. Equal values may be shown once. Read-outs that look alike come from different tables or passages of the source.
Key:
transport proteins = conditions: single samples
Description: Free testosterone calibrators, prepared by adding different amounts of testosterone to human serum free of any apparent testosterone, were calibrated by direct equilibrium dialysis and assigned free testosterone values in pg/ml. […] The tubes are incubated for 4 hours at 37° C., then decanted and radioactivity counted. Results are computed by interpolation to from the calibration curve.

[1] = molecular target: T1, sex hormone-binding globulin (SHBG) (Homo sapiens, UniProt P04278); test: Free testosterone assay, SHBG-spiked serum pool (Example 3); conditions: charcoal-absorbed human serum pool spiked with 400 μg SHBG/milliliter
T1 sequence (P04278 30-402): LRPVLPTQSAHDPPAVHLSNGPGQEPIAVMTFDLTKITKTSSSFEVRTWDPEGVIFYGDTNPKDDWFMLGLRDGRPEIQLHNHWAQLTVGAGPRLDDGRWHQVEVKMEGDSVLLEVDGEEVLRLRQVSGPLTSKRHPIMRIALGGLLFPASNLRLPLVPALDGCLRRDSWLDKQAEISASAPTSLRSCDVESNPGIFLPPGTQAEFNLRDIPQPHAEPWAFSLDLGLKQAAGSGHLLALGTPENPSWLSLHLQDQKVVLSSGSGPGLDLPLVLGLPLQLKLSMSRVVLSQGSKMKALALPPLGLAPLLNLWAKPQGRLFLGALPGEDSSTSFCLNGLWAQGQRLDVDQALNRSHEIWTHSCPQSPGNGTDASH
Description: To investigate the effect of sex hormone-binding globulin (SHBG) levels on the free testosterone assay system, a charcoal-absorbed human serum pool was spiked with 400 μg SHBG/milliliter, a level which is approximately 10 times normal.
Since charcoal absorption removes testosterone from the serum pool, it should have free (and total) testosterone concentrations of zero—that is, percent bound values of approximately 100% B/Bo—both before and after spiking.

albumin and/or SHBG = system: albumin and/or SHBG; set-up: species or system human
Description: Testosterone was selected as a representative member of this family. […] This analog tracer was subsequently compounded in 0.01 M HEPES buffer, pH=7.4, containing 1 mg/ml charcoal-absorbed human serum albumin and 0.01% sodium azide. Blocking agents were added, as described in the specific examples below.

albumin [2] = molecular target: T2, albumin (Homo sapiens, UniProt P02768); conditions: cited from earlier work
T2 sequence (P02768 25-609): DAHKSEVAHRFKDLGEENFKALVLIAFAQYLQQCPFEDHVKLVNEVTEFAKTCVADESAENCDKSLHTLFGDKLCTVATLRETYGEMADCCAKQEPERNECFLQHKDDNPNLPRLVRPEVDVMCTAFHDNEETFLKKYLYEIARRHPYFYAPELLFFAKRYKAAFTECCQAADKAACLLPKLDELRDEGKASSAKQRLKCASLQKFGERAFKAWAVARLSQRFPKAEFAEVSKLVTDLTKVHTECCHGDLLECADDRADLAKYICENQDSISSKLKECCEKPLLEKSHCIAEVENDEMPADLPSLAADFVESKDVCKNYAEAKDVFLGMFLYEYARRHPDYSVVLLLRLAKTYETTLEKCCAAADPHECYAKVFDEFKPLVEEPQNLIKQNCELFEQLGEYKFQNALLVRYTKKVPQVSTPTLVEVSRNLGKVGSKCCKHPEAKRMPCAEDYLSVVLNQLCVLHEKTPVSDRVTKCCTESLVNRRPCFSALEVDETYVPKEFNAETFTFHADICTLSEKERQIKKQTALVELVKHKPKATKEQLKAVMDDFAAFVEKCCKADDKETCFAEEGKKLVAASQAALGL

[3] = system: anti-T4 antibody-coated tubes; test: Free T4 assay of 20 samples with tracers holding different blocking agents (Example 5); set-up: species or system rabbits
Description: The tubes are then incubated for 60 minutes at 37° C. After this incubation the tubes are decanted and the bound radioactivity is counted. Results are calculated from the calibration curve and expressed in ng/dl.
Iodinated T4 analog was compounded as described above and divided into five aliquots. To each aliquot the following reagents were added.
Considering tracer 1 as the reference and comparing the others to it, the following results were obtained.

albumin [4] = molecular target: T2, albumin; test: Free testosterone assay, effect of oleic acid (Example 6); set-up: from tissue; host or cells: patient serum samples
Description: Since non-esterified free fatty acids (NEFA) have a higher association constant to albumin than does testosterone, addition of NEFA should displace free testosterone from albumin. This was confirmed by an experiment in which various amounts of oleic acid were added to each of three patient samples.

6-hydroxytestosterone-19-carboxymethyl ether histamine
binding to endogenous binders (endogenous binders): does not bind to endogenous binders
percent bound (% B/Bo) After charcoal absorption (transport proteins; 3rd Trimester): 99% and 96% and 97%
percent bound (% B/Bo) After charcoal absorption (transport proteins; Normal Females): 105% and 104%
percent bound value, B/Bo [1]: 99%

O=[N+]([O-])c1ccc(O)c([N+](=O)[O-])c1 [2,4-dinitrophenol]
effect on protein-bound testosterone and tracer (albumin and/or SHBG): displace testosterone from albumin and/or SHBG
association constant, albumin (single aromatic compounds) (albumin [2]): 11,000

O=S(=O)(O)c1cccc2cccc(Nc3ccccc3)c12 [ANS, 8-anilino-1-naphthalenesulfonic acid]
effect on protein-bound testosterone and tracer (albumin and/or SHBG): displace testosterone from albumin and/or SHBG

CCCCCCCC/C=C\CCCCCCCC(=O)O [oleic acid]
oleic acid concentration in the tracer that displaces bound unlabeled T4 from albumin [3]: greater than 1.0 mmol/l
apparent free testosterone level, Mean (albumin [4]; Oleic Acid Added 2.5 mmol/l): 7.9 pg/mL
apparent free testosterone level, Mean (albumin [4]; Oleic Acid Added 5.0 mmol/l): 14.8 pg/mL
apparent free testosterone level, Patients 1-3 (albumin [4]; Oleic Acid Added 5.0 mmol/l): 11.6 pg/mL and 11.1 pg/mL and 21.8 pg/mL
apparent free testosterone level, Mean (albumin [4]; Oleic Acid Added 7.5 mmol/l): 23.2 pg/mL
apparent free testosterone level, Mean (albumin [4]; Oleic Acid Added 10.0 mmol/l): 32.0 pg/mL

O=C1OC(c2ccc(O)c(S(=O)(=O)O)c2)(c2ccc(O)c(S(=O)(=O)O)c2)c2c(Br)c(Br)c(Br)c(Br)c21 [sulfobromophthalein]
effect on protein-bound testosterone and tracer (albumin and/or SHBG): inhibits the binding of the analog tracer to albumin without displacing testosterone bound to albumin
